In the NIST ThermoML archive (doi:10.1021/je1005483):
± gives the expanded uncertainty stated by the source.

Key:
[1] = molar heat capacity at constant pressure; details: 298.15 K; 101.3 kPa; Liquid; Flow calorimetry
[2] = 101.3 kPa, Liquid; for speed of sound: 298.15 K
[3] = xn = mol fraction of the nth substance listed; details: 101.3 kPa, Liquid; for speed of sound: 298.15 K

CC1COC(=O)O1 (configuration not stated) [4-methyl-1,3-dioxolan-2-one]
Details	molar heat capacity at constant pressure [J/K/mol]	speed of sound [m/s]
[1]	166.98 ± 1	–
[2]	–	1443 ± 2.9

[2]
Details	mass density [kg/m3]
308.15 K	1188.73 ± 0.34
318.15 K	1179.31 ± 0.33

CC(=O)N(C)C [N,N-dimethylethanamide]
Details	speed of sound [m/s]
[2]	1458.7 ± 2.9

[2]
Details	mass density [kg/m3]
308.15 K	927.294 ± 0.19
318.15 K	918.616 ± 0.2

CC(=O)N(C)C [N,N-dimethylethanamide] + CC#N
[3]
Details	speed of sound [m/s]
x1 = 0.04872	1286.5 ± 2.7
x1 = 0.1004	1297.5 ± 2.7
x1 = 0.1898	1315.5 ± 2.7
x1 = 0.2932	1336.4 ± 2.7
x1 = 0.4046	1357.3 ± 2.8
x1 = 0.503	1375.5 ± 2.8
x1 = 0.6044	1393.7 ± 2.8
x1 = 0.7074	1410.8 ± 2.9
x1 = 0.8048	1427.5 ± 2.9
x1 = 0.9035	1440 ± 2.9
x1 = 1	1458.7 ± 2.9

mass density [kg/m3], [3]
Details	308.15 K	318.15 K
x1 = 0.00994	768.688 ± 0.37	–
x1 = 0.01091	–	759.018 ± 0.38
x1 = 0.02031	771.713 ± 0.37	–
x1 = 0.02054	–	761.841 ± 0.38
x1 = 0.03016	774.535 ± 0.36	–
x1 = 0.0309	–	764.83 ± 0.38
x1 = 0.04069	777.504 ± 0.36	–
x1 = 0.04289	–	768.228 ± 0.37
x1 = 0.05104	780.389 ± 0.36	–
x1 = 0.0529	–	771.009 ± 0.37
x1 = 0.05848	782.424 ± 0.36	–
x1 = 0.05906	–	772.711 ± 0.37
x1 = 0.06932	785.313 ± 0.35	–
x1 = 0.06978	–	775.606 ± 0.36
x1 = 0.08223	788.745 ± 0.35	–
x1 = 0.08535	–	779.778 ± 0.36
x1 = 0.08742	–	780.299 ± 0.36
x1 = 0.09057	790.902 ± 0.35	–
x1 = 0.1009	793.541 ± 0.34	–
x1 = 0.1022	–	784.094 ± 0.35
x1 = 0.1438	–	794.432 ± 0.34
x1 = 0.1497	805.533 ± 0.33	–
x1 = 0.1834	–	803.73 ± 0.33
x1 = 0.1884	814.49 ± 0.32	–
x1 = 0.2301	–	813.975 ± 0.32
x1 = 0.237	824.887 ± 0.31	–
x1 = 0.2935	–	826.829 ± 0.31
x1 = 0.3015	837.769 ± 0.3	–
x1 = 0.387	–	843.966 ± 0.29
x1 = 0.4044	856.101 ± 0.28	–
x1 = 0.503	–	862.53 ± 0.29
x1 = 0.5085	872.475 ± 0.27	–
x1 = 0.6026	–	876.476 ± 0.29
x1 = 0.6251	888.44 ± 0.25	–
x1 = 0.7047	–	889.23 ± 0.3
x1 = 0.7059	898.16 ± 0.23	–
x1 = 0.8034	908.919 ± 0.21	–
x1 = 0.8085	–	900.68 ± 0.32
x1 = 0.9024	918.675 ± 0.2	–
x1 = 0.909	–	910.546 ± 0.35
x1 = 0.9117	919.547 ± 0.2	–
x1 = 0.9144	–	911.049 ± 0.35
x1 = 0.9215	–	911.696 ± 0.21
x1 = 0.9216	920.459 ± 0.2	–
x1 = 0.932	–	912.659 ± 0.21
x1 = 0.9322	921.402 ± 0.2	–
x1 = 0.941	922.202 ± 0.2	–
x1 = 0.9414	–	913.506 ± 0.2
x1 = 0.9515	923.129 ± 0.2	–
x1 = 0.9546	–	914.681 ± 0.36
x1 = 0.9614	924 ± 0.2	–
x1 = 0.963	–	915.423 ± 0.36
x1 = 0.9712	924.844 ± 0.19	–
x1 = 0.9716	–	916.181 ± 0.2
x1 = 0.9809	–	916.988 ± 0.2
x1 = 0.9811	925.7 ± 0.19	–
x1 = 0.9893	926.398 ± 0.19	–
x1 = 0.9911	–	917.856 ± 0.37
x1 = 1	927.294 ± 0.19	918.616 ± 0.2

CC#N [acetonitrile]
Details	speed of sound [m/s]
[2]	1279.6 ± 2.7

[2]
Details	mass density [kg/m3]
308.15 K	765.735 ± 0.38
318.15 K	755.763 ± 0.39

CC#N [acetonitrile] + CC1COC(=O)O1
Details	speed of sound [m/s]
[3], x2 = 0	1279.6 ± 2.7

[3], x2 = 0
Details	mass density [kg/m3]
308.15 K	765.735 ± 0.38
318.15 K	755.763 ± 0.39

CC#N [acetonitrile] + CC(=O)N(C)C
Details	speed of sound [m/s]
[3], x2 = 0	1279.6 ± 2.7

[3], x2 = 0
Details	mass density [kg/m3]
308.15 K	765.735 ± 0.38
318.15 K	755.763 ± 0.39
